Data from patent publication US20220193095A9, “PHARMACEUTICAL COMPOSITIONS” (Shenzhen Pharmacin Co., Ltd., priority 2019, published 2022).

Tests used:
[1] = Solubility of abiraterone acetate in surfactants
[2] = Solubility of abiraterone acetate in aqueous media
[3] = Solubility of abiraterone acetate in lipids (glycerides); details: 25° C.
[4] = Solubility of abiraterone acetate in other media
[5] = Solubility of abiraterone acetate in fatty acids; details: 25° C.
[6] = cited from earlier work
[7] = cited from earlier work; remark: listed apart in the source
[8] = Solubility of abiraterone acetate in co-solvents

CC(=O)O[C@H]1CC[C@@]2(C)C(=CC[C@@H]3[C@@H]2CC[C@]2(C)C(c4cccnc4)=CC[C@@H]32)C1 [Abiraterone acetate]
Solubility ([1]; Labrasol, 25° C.): 35.4 mg/mL | Solubility ([1]; Polyethylene Glycol Oleate, 25° C.): 52.7 mg/mL | Solubility ([1]; Polyoxyethylene 8 stearate, 25° C.): 18.1 mg/mL | Solubility ([1]; Polyoxyethylene hydrogenated castor oil, 25° C.): 10.1 mg/mL | Solubility ([1]; Tween 80, 25° C.): 7.5 mg/mL | Solubility ([2]; FDA Dissolution medium: 0.25% SLS in 56.5 mM phosphate buffer, pH 4.5, 25° C.): 0.7 mg/mL | Solubility ([2]; pH 3.0 buffer, 25° C.): <0.001 mg/mL | Solubility ([2]; pH 4.0 buffer, 25° C.): <0.001 mg/mL | Solubility ([2]; pH 5.0 buffer, 25° C.): <0.001 mg/mL | Solubility ([2]; pH 6.0 buffer, 25° C.): <0.001 mg/mL | Solubility ([2]; pH 7.4 buffer, 25° C.): <0.001 mg/mL | Solubility ([3]; Capryl monoglyceride): 139.8 mg/mL | Solubility ([3]; Castor oil): 59.6 mg/mL | Solubility ([3]; Coconut oil): 30.6 mg/mL | Solubility ([3]; Corn oil): 31.4 mg/mL | Solubility ([3]; Glycerol mono/di-caprylocaprate): 147.0 mg/mL | Solubility ([3]; Glyceryl monooleate): 37.1 mg/mL | Solubility ([3]; Isopropyl myristate): 41.0 mg/mL | Solubility ([3]; Olive oil): 27.3 mg/mL | Solubility ([3]; Polyglycerol fatty acid ester): 10.0 mg/mL | Solubility ([3]; Propylene Glycol Monocaprylate): 160.0 mg/mL | Solubility ([3]; Soybean oil): 28.1 mg/mL | Solubility ([4]; 1-octanol, 25° C.): 114.0 mg/mL | Solubility ([4]; Azone (Laurocapram), 25° C.): 66.0 mg/mL | Solubility ([4]; Capryl monoglyceride, 25° C. (Table 11)): 139.8 mg/mL | Solubility ([4]; Glycerol mono/di-caprylocaprate, 25° C. (Table 11)): 147.0 mg/mL | Solubility ([4]; Glyceryl monooleate, 25° C. (Table 11)): 37.1 mg/mL | Solubility ([4]; Isopropyl myristate, 25° C. (Table 11)): 41.0 mg/mL | Solubility ([4]; Polyglycerol fatty acid ester, 25° C. (Table 11)): 10.0 mg/mL | Solubility ([4]; Propylene Glycol Monocaprylate, 25° C. (Table 11)): 160.0 mg/mL | Solubility ([5]; Acetic acid): 2386.1 mg/mL | Solubility ([5]; Butyric acid): 1399.3 mg/mL | Solubility ([5]; Heptanoic acid): 1325.9 mg/mL | Solubility ([5]; Linoleic acid): 182.9 mg/mL | Solubility ([5]; Nonanoic acid): 1084.1 mg/mL | Solubility ([5]; Oleic acid): 239.0 mg/mL | Solubility ([5]; Propionic acid): 2209.5 mg/mL | Solubility ([5]; Valeric acid): 1104.8 mg/mL | Solubility ([5]; n-caproic acid): 1572.6 mg/mL | Solubility ([5]; n-caprylic acid): 1214.7 mg/mL | Log P [6]: 5.12 | solubility in water [7]: practically insoluble in water | Solubility ([8]; Ethanol, 25° C.): 61.1 mg/mL | Solubility ([8]; Glycerol, 25° C.): 5.0 mg/mL | Solubility ([8]; PEG400, 25° C.): 16.5 mg/mL | Solubility ([8]; Propylene glycol, 25° C.): 5.0 mg/mL | Solubility ([8]; Transcutol, 25° C.): 99.5 mg/mL
